Experimental data as given in PubChem BioAssay (NCI).
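In this assay, cells in 96-well plates receive the compound at five concentrations for 48 hours. Endpoints are linearly interpolated between the surrounding concentrations. TGI denotes the concentration required for complete inhibition of growth.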

Columns and labels:
Assay in all cases: NCI-60 cell line screen, 48 h
A549 NSCLC = test system: A549 NSCLC
ACHN renal = test system: ACHN renal
CCRF-CEM leukemia = test system: CCRF-CEM leukemia
COLO 205 colon = test system: COLO 205 colon
DLD-1 colon = test system: DLD-1 colon
HCC-2998 colon = test system: HCC-2998 colon
HCT-116 colon = test system: HCT-116 colon
HL-60(TB) leukemia = test system: HL-60(TB) leukemia
HOP-18 NSCLC = test system: HOP-18 NSCLC
HOP-62 NSCLC = test system: HOP-62 NSCLC
HOP-92 NSCLC = test system: HOP-92 NSCLC
HT29 colon = test system: HT29 colon
IGROV1 ovarian = test system: IGROV1 ovarian
K-562 leukemia = test system: K-562 leukemia
KM12 colon = test system: KM12 colon
LXFL 529 NSCLC = test system: LXFL 529 NSCLC
M19-MEL melanoma = test system: M19-MEL melanoma
MALME-3M melanoma = test system: MALME-3M melanoma
MOLT-4 leukemia = test system: MOLT-4 leukemia
NCI-H226 lung = test system: NCI-H226 lung
NCI-H23 lung = test system: NCI-H23 lung
NCI-H460 lung = test system: NCI-H460 lung
NCI-H522 lung = test system: NCI-H522 lung
OVCAR-3 ovarian = test system: OVCAR-3 ovarian
OVCAR-5 ovarian = test system: OVCAR-5 ovarian
OVCAR-8 ovarian = test system: OVCAR-8 ovarian
RPMI-8226 leukemia = test system: RPMI-8226 leukemia
SF-268 CNS = test system: SF-268 CNS
SF-295 CNS = test system: SF-295 CNS
SF-539 CNS = test system: SF-539 CNS
SK-MEL-2 melanoma = test system: SK-MEL-2 melanoma
SK-MEL-28 melanoma = test system: SK-MEL-28 melanoma
SK-MEL-5 melanoma = test system: SK-MEL-5 melanoma
SK-OV-3 ovarian = test system: SK-OV-3 ovarian
SNB-19 CNS = test system: SNB-19 CNS
SNB-75 CNS = test system: SNB-75 CNS
SR leukemia = test system: SR leukemia
SW-620 colon = test system: SW-620 colon
TK-10 renal = test system: TK-10 renal
U251 CNS = test system: U251 CNS
UACC-257 melanoma = test system: UACC-257 melanoma
UACC-62 melanoma = test system: UACC-62 melanoma
UO-31 renal = test system: UO-31 renal
786-0 renal = test system: 786-0 renal
A498 renal = test system: A498 renal
BT-549 breast = test system: BT-549 breast
CAKI-1 renal = test system: CAKI-1 renal
DU-145 prostate = test system: DU-145 prostate
EKVX NSCLC = test system: EKVX NSCLC
HCT-15 colon = test system: HCT-15 colon
HS 578T breast = test system: HS 578T breast
LOX IMVI melanoma = test system: LOX IMVI melanoma
M14 melanoma = test system: M14 melanoma
MCF7 breast = test system: MCF7 breast
MDA-MB-231 breast = test system: MDA-MB-231 breast
MDA-MB-435 = test system: MDA-MB-435
MDA-N = test system: MDA-N
NCI/ADR-RES ovarian = test system: NCI/ADR-RES ovarian
OVCAR-4 ovarian = test system: OVCAR-4 ovarian
PC-3 prostate = test system: PC-3 prostate
RXF 393 renal = test system: RXF 393 renal
SN12C renal = test system: SN12C renal
T-47D breast = test system: T-47D breast
DMS 114 small cell lung = test system: DMS 114 small cell lung
DMS 273 small cell lung = test system: DMS 273 small cell lung
KM20L2 colon = test system: KM20L2 colon
XF 498 CNS = test system: XF 498 CNS

Measured: TGI

CC(=O)Nc1ccc(C(=O)NN2C(=O)C(Cl)C2/C=C/c2ccccc2)cc1 (centres undefined)
not listed: 786-0 renal | A498 renal | BT-549 breast | CAKI-1 renal | DU-145 prostate | EKVX NSCLC | HCT-15 colon | HS 578T breast | LOX IMVI melanoma | M14 melanoma | MCF7 breast | MDA-MB-231 breast | MDA-MB-435 | MDA-N | NCI/ADR-RES ovarian | OVCAR-4 ovarian | PC-3 prostate | RXF 393 renal | SN12C renal | T-47D breast | DMS 114 small cell lung | DMS 273 small cell lung | KM20L2 colon | XF 498 CNS
> 100 µM: all other assays above

O=[N+]([O-])C(=C(\Cl)NCCO)/C(Cl)=C(/Cl)Br
13.4 µM: OVCAR-5 ovarian
3.84 µM: T-47D breast
3.8 µM: MALME-3M melanoma
3.68 µM: M14 melanoma
10.6 µM: IGROV1 ovarian | UO-31 renal
2.01 µM: CCRF-CEM leukemia
2.19 µM: LOX IMVI melanoma
7.68 µM: PC-3 prostate
4.14 µM: SK-MEL-2 melanoma
5.51 µM: SK-MEL-28 melanoma
8.9 µM: ACHN renal
24.9 µM: SF-295 CNS
5.77 µM: SN12C renal
9.08 µM: SNB-75 CNS
3.53 µM: HOP-92 NSCLC
2.62 µM: OVCAR-3 ovarian
2.67 µM: MDA-MB-435
1.85 µM: CAKI-1 renal
7.3 µM: SK-MEL-5 melanoma
29 µM: HOP-62 NSCLC
2.93 µM: MOLT-4 leukemia
20.6 µM: DU-145 prostate
11.1 µM: HCC-2998 colon | NCI-H23 lung
10.8 µM: NCI-H460 lung
5.25 µM: SR leukemia
2.75 µM: 786-0 renal
10.4 µM: EKVX NSCLC
5.18 µM: HCT-116 colon
2.59 µM: MCF7 breast
7.31 µM: OVCAR-8 ovarian
4.56 µM: SF-268 CNS
6.27 µM: U251 CNS
17.7 µM: NCI-H226 lung
4.2 µM: BT-549 breast
3.67 µM: HT29 colon
2.48 µM: HL-60(TB) leukemia
2.78 µM: HCT-15 colon
12 µM: A498 renal
2.88 µM: NCI-H522 lung
3.99 µM: MDA-MB-231 breast
6.15 µM: SF-539 CNS
7.42 µM: NCI/ADR-RES ovarian
2.97 µM: K-562 leukemia
2.68 µM: SW-620 colon
28.5 µM: SK-OV-3 ovarian
21.1 µM: A549 NSCLC
3.97 µM: MDA-N
4.78 µM: UACC-62 melanoma
2.74 µM: COLO 205 colon
3.01 µM: OVCAR-4 ovarian
6.14 µM: RPMI-8226 leukemia
5.95 µM: RXF 393 renal
4.91 µM: TK-10 renal
4.4 µM: UACC-257 melanoma
17.6 µM: KM12 colon
18 µM: SNB-19 CNS
28 µM: HS 578T breast

Cc1c(OCc2cccc3ccccc23)ccc2c(=O)cc(S)oc12
89.4 µM: NCI-H522 lung
62.1 µM: SR leukemia
80.7 µM: NCI-H23 lung
98.6 µM: MDA-MB-435
50.4 µM: SK-MEL-2 melanoma
88.7 µM: SF-295 CNS
54.1 µM: CCRF-CEM leukemia
67.1 µM: HOP-92 NSCLC
73.3 µM: UACC-62 melanoma
77.5 µM: HCT-116 colon
53.6 µM: OVCAR-3 ovarian
47.5 µM: LOX IMVI melanoma
65.2 µM: SF-539 CNS
59.7 µM: HL-60(TB) leukemia
not listed: DLD-1 colon | HOP-18 NSCLC | LXFL 529 NSCLC | M19-MEL melanoma | MALME-3M melanoma | RPMI-8226 leukemia | SK-OV-3 ovarian | DMS 114 small cell lung | DMS 273 small cell lung | KM20L2 colon | XF 498 CNS
> 100 µM: all other assays above

O=C1CSC2(CC(/C=C/c3ccccc3[N+](=O)[O-])=NN2c2cccc(S(=O)(=O)O)c2)N1c1nc2ccccc2s1 (centres undefined)
29 µM: UACC-62 melanoma
22.5 µM: 786-0 renal
52.7 µM: NCI-H460 lung
> 75 µM: CAKI-1 renal | COLO 205 colon | EKVX NSCLC | HCC-2998 colon | HCT-116 colon | HS 578T breast | MALME-3M melanoma | RXF 393 renal | SF-539 CNS | SK-MEL-28 melanoma | SK-MEL-5 melanoma | SW-620 colon | UACC-257 melanoma
41.1 µM: SF-268 CNS
50.6 µM: MDA-N
35.3 µM: OVCAR-4 ovarian
63.7 µM: HL-60(TB) leukemia
63.3 µM: K-562 leukemia
52.9 µM: A549 NSCLC
27 µM: KM12 colon
54.9 µM: SN12C renal
28.6 µM: OVCAR-8 ovarian
63.1 µM: SR leukemia
39.9 µM: OVCAR-5 ovarian
26.4 µM: MCF7 breast
35.4 µM: PC-3 prostate | SK-MEL-2 melanoma
34.4 µM: NCI-H23 lung
50.7 µM: NCI/ADR-RES ovarian
35 µM: HCT-15 colon
56.7 µM: HOP-92 NSCLC
22.1 µM: NCI-H522 lung
32 µM: MDA-MB-231 breast
60.7 µM: M14 melanoma
52.4 µM: MOLT-4 leukemia
30.6 µM: T-47D breast
35.1 µM: SNB-19 CNS
28.1 µM: MDA-MB-435
28.8 µM: SNB-75 CNS
44.2 µM: ACHN renal
44.1 µM: NCI-H226 lung
27.5 µM: DU-145 prostate
36.1 µM: IGROV1 ovarian
34.5 µM: LOX IMVI melanoma
25.1 µM: UO-31 renal
69.1 µM: HT29 colon
38.7 µM: A498 renal
33.6 µM: U251 CNS
33.1 µM: BT-549 breast
43.5 µM: CCRF-CEM leukemia | RPMI-8226 leukemia
29.4 µM: TK-10 renal

Cc1csc(CP(=O)(OC(C)C)OC(C)C)n1
not listed: CCRF-CEM leukemia | DLD-1 colon | HOP-18 NSCLC | KM12 colon | LXFL 529 NSCLC | M19-MEL melanoma | UACC-62 melanoma | DMS 114 small cell lung | DMS 273 small cell lung | KM20L2 colon | XF 498 CNS
> 100 µM: all other assays above

CCOC(=O)CCNC(=O)c1cc(C)cc2c1Oc1c(cc(C)cc1C(=O)NCCC(=O)OCC)S2
58 µM: RXF 393 renal
78.9 µM: SNB-75 CNS
87.8 µM: HOP-92 NSCLC
90.8 µM: A498 renal
not listed: DLD-1 colon | HOP-18 NSCLC | LXFL 529 NSCLC | M19-MEL melanoma | NCI-H460 lung | DMS 114 small cell lung | DMS 273 small cell lung | KM20L2 colon | XF 498 CNS
> 100 µM: all other assays above

O=C(NCCOCCO)c1ccc(O)cc1
42.9 µM: EKVX NSCLC
not listed: HCC-2998 colon | HT29 colon | KM12 colon | MALME-3M melanoma | NCI-H226 lung | OVCAR-3 ovarian | OVCAR-5 ovarian | SF-295 CNS | SK-MEL-2 melanoma | SNB-19 CNS | SNB-75 CNS | SR leukemia | UACC-257 melanoma | BT-549 breast | CAKI-1 renal | DU-145 prostate | HS 578T breast | MCF7 breast | MDA-MB-231 breast | MDA-MB-435 | MDA-N | NCI/ADR-RES ovarian | OVCAR-4 ovarian | PC-3 prostate | T-47D breast
> 100 µM: all other assays above
